In ChEMBL document CHEMBL6177962, “Design, synthesis and biological evaluation of 2-arylbenzo[b]furan-4-vinylcarbonyl derivatives based on Salvianolic acid C as antioxidant neuroprotective agents for the treatment of ischemic stroke” (Eur J Med Chem, 2025) one finds viability data, which are given here for 39 compounds.

Structures are written as SMILES.

Holding throughout (details): read-out: Activity
Series [1] deals with PC-12. Nature of the series: Cytotoxicity against rat PC12 cells assessed as cell viability at 10 uM incubated for 24 hrs by CCK-8 assay relative to control. The class given is functional. (Tetrazolium assays rely on reduction of a dye to a coloured formazan, in cell work by metabolically active cells.)
The subject of series [2] is PC-12. Nature of the series: Cytotoxicity against rat PC12 cells assessed as cell viability at 40 uM incubated for 24 hrs by CCK-8 assay relative to control. It counts as functional.
The nature of series [3]: Cytotoxicity against mouse RAW cells assessed as cell viability. The class given is toxicity, cell-based. More on the design: concentration or dose not given beside the values.

For `CC[C@H](NC(=O)/C=C/c1ccc(OC)c2oc(-c3ccc(C)cc3)cc12)C(=O)OC`, the viability at 10 µM in the series on PC-12 [1] came to 66.4%. Moreover, the viability at 40 µM in the series on PC-12 [2] worked out at 84%.

For the compound `COc1cc(OC)cc(-c2cc3c(/C=C/C(=O)NCCc4ccc(O)c(O)c4)ccc(OC)c3o2)c1`, the viability at 10 µM in the series on PC-12 [1] was determined as 76.7%. Also, the viability in series [3] is below 80%. The viability at 40 µM with PC-12 [2] is 98.7%.

For `COc1ccc(/C=C/C(=O)NCCc2ccccc2)c2cc(-c3ccc(C)cc3)oc12`, the viability at 10 µM with PC-12 [1] amounted to 93.8%. The viability at 40 µM with PC-12 [2] was determined as 99.1%.

Consider `COC(=O)[C@@H]1CCCN1C(=O)/C=C/c1ccc(OC)c2oc(-c3ccc(C)cc3)cc12`, for which, in the series with PC-12 [1], the viability at 10 µM came to 32.3%. In addition, the viability at 40 µM in the series with PC-12 [2] stood at 75.5%.

For `COC(=O)[C@@H](NC(=O)/C=C/c1ccc(OC)c2oc(-c3ccc(C)cc3)cc12)C(C)C`, the viability at 10 µM in the series with PC-12 [1] turned out to be 73.1%. Further, the viability at 40 µM in the series with PC-12 [2] is 94.2%.

Consider `COc1ccc(-c2cc3c(/C=C/C(=O)c4ccc(O)c(OC)c4)ccc(OC)c3o2)cc1`, for which the viability at 10 µM in the series with PC-12 [1] turned out to be 77.2%. Also, the viability at 40 µM with PC-12 [2] came out at 116%.

For the compound `COC(=O)[C@H](Cc1c[nH]c2ccccc12)NC(=O)/C=C/c1ccc(OC)c2oc(-c3ccc(OC)cc3)cc12`, the viability at 10 µM with PC-12 [1] was found to be 94.4%. The viability at 40 µM with PC-12 [2] amounted to 96%.

As for `COc1cc(OC)cc(-c2cc3c(/C=C/C(=O)c4ccc(O)c(OC)c4)ccc(OC)c3o2)c1`, in the series on PC-12 [1], the viability at 10 µM came out at 45.6%. The viability at 40 µM in the series with PC-12 [2] stood at 94.6%.

With `COc1ccc(/C=C/C(=O)c2cccc(O)c2)c2cc(-c3ccc(C)cc3)oc12`, the viability at 10 µM in the series on PC-12 [1] came out at 37.7%. Moreover, the viability in series [3] is below 80%. Further, in the series with PC-12 [2], the viability at 40 µM is 80.6%.

Turning to `COC(=O)[C@@H](NC(=O)/C=C/c1ccc(OC)c2oc(-c3ccc(C)cc3)cc12)c1ccccc1`, the viability at 10 µM in the series with PC-12 [1] was found to be 74.1%. For the same compound, the viability at 40 µM in the series on PC-12 [2] came to 99.3%.

For `COc1cccc(C(=O)/C=C/c2ccc(OC)c3oc(-c4ccc(C)cc4)cc23)c1OC`, the viability at 10 µM in the series with PC-12 [1] was found to be 67.5%. In the series on PC-12 [2], the viability at 40 µM was 78.2%.

As for `COc1ccc(C(=O)/C=C/c2ccc(OC)c3oc(-c4ccc(C)cc4)cc23)c(OC)c1OC`, in the series on PC-12 [1], the viability at 10 µM was 71.9%. Further, in the series on PC-12 [2], the viability at 40 µM was determined as 83.9%.

Turning to `COC(=O)[C@H](Cc1c[nH]c2ccccc12)NC(=O)/C=C/c1ccc(OC)c2oc(-c3ccc(OC)c(OC)c3)cc12`, in the series with PC-12 [1], the viability at 10 µM came to 57.1%. Further, in the series on PC-12 [2], the viability at 40 µM is 111%.

Regarding `COc1ccc(C(=O)/C=C/c2ccc(OC)c3oc(-c4ccc(C)cc4)cc23)cc1O`, the viability at 10 µM in the series on PC-12 [1] turned out to be 14.9%. For the same compound, in the series with PC-12 [2], the viability at 40 µM is 69.2%.

Take `COc1ccc(-c2cc3c(/C=C/C(=O)c4cc(OC)c(OC)c(OC)c4)ccc(OC)c3o2)cc1`: the viability at 10 µM in the series with PC-12 [1] came out at 43.7%. The viability in series [3] was below 80%. Also, the viability at 40 µM in the series on PC-12 [2] came out at 72.9%.

Regarding `COc1cc(C(=O)/C=C/c2ccc(OC)c3oc(-c4ccc(C)cc4)cc23)ccc1O`, the viability at 10 µM in the series on PC-12 [1] came out at 36.3%. Also, the viability at 40 µM in the series on PC-12 [2] came to 72.8%.

Take `COc1cccc(C(=O)/C=C/c2ccc(OC)c3oc(-c4ccc(C)cc4)cc23)c1`: the viability at 10 µM with PC-12 [1] was 55.7%. In addition, the viability at 40 µM in the series on PC-12 [2] worked out at 119%.

With `COC(=O)[C@H](CC1CCCCC1)NC(=O)/C=C/c1ccc(OC)c2oc(-c3ccc(C)cc3)cc12`, the viability at 10 µM with PC-12 [1] is 82.1%. Further, in the series on PC-12 [2], the viability at 40 µM is 96.1%.

On to `COC(=O)[C@H](Cc1c[nH]c2ccccc12)NC(=O)/C=C/c1ccc(OC)c2oc(-c3cc(OC)cc(OC)c3)cc12`, for which the viability at 10 µM in the series with PC-12 [1] turned out to be 79.4%. The viability at 40 µM in the series on PC-12 [2] worked out at 105%.

With `COc1cc(C(=O)/C=C/c2ccc(OC)c3oc(-c4ccc(OC)c(OC)c4)cc23)ccc1O`, the viability at 10 µM with PC-12 [1] came to 12.9%. For the same compound, in series [3], the viability was below 80%. In addition, the viability at 40 µM in the series with PC-12 [2] came out at 93.8%.

Regarding `COC(=O)CNC(=O)/C=C/c1ccc(OC)c2oc(-c3ccc(C)cc3)cc12`, in the series on PC-12 [1], the viability at 10 µM came to 68.9%. For the same compound, in the series with PC-12 [2], the viability at 40 µM was determined as 93.9%.

Regarding `COc1ccc(/C=C/C(=O)c2ccc3c(c2)OCO3)c2cc(-c3ccc(C)cc3)oc12`, the viability at 10 µM in the series on PC-12 [1] turned out to be 58.1%. In the series on PC-12 [2], the viability at 40 µM is 95%.

As to `COc1ccc(/C=C/C(=O)c2ccc(N3CCOCC3)cc2)c2cc(-c3ccc(C)cc3)oc12`, in the series with PC-12 [1], the viability at 10 µM is 77.9%. For the same compound, the viability at 40 µM in the series with PC-12 [2] was found to be 85%.

As to `COc1cc(C(=O)/C=C/c2ccc(OC)c3oc(-c4ccc(C)cc4)cc23)cc(OC)c1O`, the viability at 10 µM in the series with PC-12 [1] was 37.7%. Also, the viability at 40 µM in the series with PC-12 [2] was 82%.

Consider `COc1cc(OC)cc(C(=O)/C=C/c2ccc(OC)c3oc(-c4ccc(C)cc4)cc23)c1`, for which the viability at 10 µM with PC-12 [1] was 76.1%. For the same compound, the viability at 40 µM with PC-12 [2] came to 92.2%.

Take `COC(=O)[C@@H]1CCC(=O)N1C(=O)/C=C/c1ccc(OC)c2oc(-c3ccc(C)cc3)cc12`: in the series with PC-12 [1], the viability at 10 µM is 91%. Moreover, the viability at 40 µM in the series with PC-12 [2] is 95.3%.

Consider `COc1ccc(-c2cc3c(/C=C/C(=O)NCCc4ccc(O)c(O)c4)ccc(OC)c3o2)cc1OC`, for which the viability at 10 µM in the series on PC-12 [1] worked out at 70.7%. In the series on PC-12 [2], the viability at 40 µM came to 104%.

`COc1ccc(C(=O)/C=C/c2ccc(OC)c3oc(-c4ccc(C)cc4)cc23)cc1`: in the series on PC-12 [1], the viability at 10 µM was 56.8%. The viability at 40 µM in the series on PC-12 [2] is 99.5%.

Take `COc1cc(OC)cc(-c2cc3c(/C=C/C(=O)c4cc(OC)c(OC)c(OC)c4)ccc(OC)c3o2)c1`: the viability at 10 µM in the series with PC-12 [1] was 89.2%. Moreover, the viability at 40 µM with PC-12 [2] was 109%.

As for `COc1cc(C(=O)/C=C/c2ccc(OC)c3oc(-c4ccc(C)cc4)cc23)ccc1F`, the viability at 10 µM in the series with PC-12 [1] amounted to 83.8%. Moreover, the viability at 40 µM with PC-12 [2] was found to be 102%.

For `CC(C)(C)OO` [TERT-BUTYL HYDROPEROXIDE], the viability at 10 µM in the series on PC-12 [1] was found to be 52.1%.

For the compound `COC(=O)[C@H](Cc1c[nH]c2ccccc12)NC(=O)/C=C/c1ccc(OC)c2oc(-c3ccc(C)cc3)cc12`, the viability at 10 µM in the series on PC-12 [1] was found to be 66.1%. Further, in the series with PC-12 [2], the viability at 40 µM amounted to 117%.

For the compound `COc1ccc(/C=C/C(=O)c2ccco2)c2cc(-c3ccc(C)cc3)oc12`, in the series on PC-12 [1], the viability at 10 µM was found to be 78.5%. For the same compound, the viability in series [3] is below 80%. The viability at 40 µM with PC-12 [2] is 107%.

Turning to `COc1ccc(/C=C/C(=O)c2ccc(O)cc2)c2cc(-c3ccc(C)cc3)oc12`, the viability at 10 µM in the series with PC-12 [1] came out at 55.9%. Further, the viability in series [3] was below 80%. For the same compound, the viability at 40 µM in the series with PC-12 [2] turned out to be 84.1%.

Take `COc1cc(C(=O)/C=C/c2ccc(OC)c3oc(-c4ccc(C)cc4)cc23)cc(OC)c1OC`: the viability at 10 µM in the series on PC-12 [1] was 51.6%. In the series with PC-12 [2], the viability at 40 µM stood at 102%.

With `COc1ccc(C(=O)/C=C/c2ccc(OC)c3oc(-c4ccc(C)cc4)cc23)cc1OC`, the viability at 10 µM with PC-12 [1] came out at 42.9%. Moreover, the viability at 40 µM in the series with PC-12 [2] turned out to be 80.1%.

`COC(=O)[C@@H](NC(=O)/C=C/c1ccc(OC)c2oc(-c3ccc(C)cc3)cc12)c1ccc(O)cc1`: in the series with PC-12 [1], the viability at 10 µM was determined as 69.7%. The viability at 40 µM in the series with PC-12 [2] is 92%.

Regarding `COc1ccc(C(=O)/C=C/c2ccc(OC)c3oc(-c4ccc(C)cc4)cc23)cc1F`, the viability at 10 µM with PC-12 [1] worked out at 50.8%. In addition, the viability at 40 µM with PC-12 [2] was 98.8%.

In the case of `CCCC[C@H](NC(=O)/C=C/c1ccc(OC)c2oc(-c3ccc(C)cc3)cc12)C(=O)OC`, the viability at 10 µM in the series on PC-12 [1] came to 56%. In the series with PC-12 [2], the viability at 40 µM is 93.5%.
